Results taken from ChEMBL document CHEMBL4257548, “Phenothiazine antioxidants increase mitochondrial biogenesis and frataxin levels in Friedreich's ataxia cells” (Medchemcomm, 2018).
The source made the active and inactive calls.

Assays:
GM15850 [1] = test: Increase in frataxin expression in human GM15850 cells at 50 to 250 nM after 24 to 48 hrs by ELISA; type: functional, cell-based
GM16216 [2] = test: Effect on mitochondrial membrane potential in human GM16216 cells assessed as intact mitochondrial membrane at 0.25 uM after 16 hrs by JC1 staining based flow cytometry (reference value: 87%); type: functional
GM15850 [3] = test: Inhibition of ATP production in human GM15850 cells at 2.5 uM after 24 hrs by Vialight reagent based luminescence assay; type: functional, cell-based
GM15850 [4] = test: Effect on mitochondrial membrane potential in human GM15850 cells assessed as loss of mitochondrial membrane potential at 0.25 uM after 16 hrs by JC1 staining based flow cytometry (reference value: 13%); type: functional
GM15850 [5] = test: Effect on ATP production in human GM15850 cells at 0.1 to 0.5 uM after 24 hrs by Vialight reagent based luminescence assay; type: functional, cell-based
GM15850 [6] = test: Induction of mitochondrial biogenesis in human GM15850 cells assessed as increase in ratio of COX1 to SDH-A protein levels at 50 to 250 nM after 24 to 48 hrs by ELISA; type: functional, cell-based
GM16216 [7] = test: Induction of mitochondrial biogenesis in human GM16216 cells assessed as increase in ratio of COX1 to SDH-A protein levels at 50 to 250 nM after 24 to 48 hrs by ELISA; type: functional, cell-based
GM15850 [8] = test: Cytotoxicity against human GM15850 cells at 0.25 to 2.5 uM after 24 to 48 hrs by live/dead staining-based flow cytometry; type: cell-based; conditions: gm15850, 2.5 µM
GM16216 [9] = test: Cytotoxicity against human GM16216 cells at 0.25 to 2.5 uM after 24 to 48 hrs by live/dead staining-based flow cytometry; type: cell-based; conditions: gm16216, 2.5 µM
GM16216 [10] = test: Inhibition of ATP production in human GM16216 cells at 2.5 uM after 24 hrs by Vialight reagent based luminescence assay; type: functional, cell-based
GM16216 [11] = test: Increase in frataxin expression in human GM16216 cells at 50 to 250 nM after 24 to 48 hrs by ELISA; type: functional, cell-based
GM16216 [12] = test: Effect on mitochondrial membrane potential in human GM16216 cells assessed as loss of mitochondrial membrane potential at 0.25 uM after 16 hrs by JC1 staining based flow cytometry (reference value: 13%); type: functional
GM16216 [13] = test: Effect on ATP production in human GM16216 cells at 0.1 to 0.5 uM after 24 hrs by Vialight reagent based luminescence assay; type: functional, cell-based
GM15850 [14] = test: Effect on mitochondrial membrane potential in human GM15850 cells assessed as intact mitochondrial membrane at 0.25 uM after 16 hrs by JC1 staining based flow cytometry (reference value: 87%); type: functional
GM15850 [15] = test: Effect on ATP production in human GM15850 cells at 0.1 uM after 24 hrs by Vialight reagent based luminescence assay; type: functional, cell-based
GM16216 [16] = test: Cytoprotection against DEM-induced toxicity in human GM16216 cells assessed as increase in cell viability pretreated for 16 hrs followed by DEM addition and measured after 5 hrs by live/dead staining based flow cytometry; type: functional
GM15850 [17] = test: Inhibition of ATP production in human GM15850 cells after 24 hrs by Vialight reagent based luminescence assay; type: functional, cell-based
GM16216 [18] = test: Cytotoxicity against human GM16216 cells at 2.5 uM after 48 hrs by live/dead staining-based flow cytometry; type: cell-based; conditions: gm16216, 48 h
GM16216 [19] = test: Inhibition of ATP production in human GM16216 cells after 24 hrs by Vialight reagent based luminescence assay; type: functional, cell-based
GM15850 [20] = test: Cytotoxicity against human GM15850 cells at 2.5 uM after 48 hrs by live/dead staining-based flow cytometry; type: cell-based; conditions: gm15850, 48 h
GM16216 [21] = test: Effect on ATP production in human GM16216 cells at 0.1 uM after 24 hrs by Vialight reagent based luminescence assay; type: functional, cell-based
GM15850 [22] = test: Cytoprotection against DEM-induced toxicity in human GM15850 cells assessed as increase in cell viability pretreated for 16 hrs followed by DEM addition and measured after 5 hrs by live/dead staining based flow cytometry; type: functional
GM16216 [23] = test: Effect on ATP production in human GM16216 cells at 0.5 uM after 24 hrs by Vialight reagent based luminescence assay; type: functional, cell-based
GM15850 [24] = test: Effect on ATP production in human GM15850 cells at 0.5 uM after 24 hrs by Vialight reagent based luminescence assay; type: functional, cell-based
GM16216 [25] = test: Increase in ATP production in human GM16216 cells at 0.1 uM after 24 hrs by Vialight reagent based luminescence assay; type: functional, cell-based
GM15850 [26] = test: Increase in ATP production in human GM15850 cells at 0.1 uM after 24 hrs by Vialight reagent based luminescence assay; type: functional, cell-based
GM15850 [27] = test: Induction of mitochondrial biogenesis in human GM15850 cells assessed as ratio of COX1 to SDH-A protein levels at 250 after 48 hrs by ELISA relative to control; type: functional
GM15850 [28] = test: Restoration of total aconitase activity in human GM15850 cells after 5 days by colorimetric method; type: functional, cell-based
GM15850 [29] = test: Effect on frataxin expression in human GM15850 cells at 250 nM after 24 hrs by ELISA relative to control; type: functional
GM15850 [30] = test: Effect on frataxin expression in human GM15850 cells at 250 nM after 48 hrs by ELISA relative to control; type: functional
GM15850 [31] = test: Effect on frataxin expression in human GM15850 cells at 50 nM after 24 hrs by ELISA relative to control; type: functional
GM15850 [32] = test: Induction of mitochondrial biogenesis in human GM15850 cells assessed as ratio of COX1 to SDH-A protein levels at 250 after 24 hrs by ELISA relative to control; type: functional
GM16216 [33] = test: Increase in ATP production in human GM16216 cells at 0.1 to 0.5 uM after 24 hrs by Vialight reagent based luminescence assay; type: functional, cell-based
GM15850 [34] = test: Effect on frataxin expression in human GM15850 cells at 50 nM after 48 hrs by ELISA relative to control; type: functional
GM16216 [35] = test: Effect on frataxin expression in human GM16216 cells at 250 nM after 48 hrs by ELISA relative to control; type: functional
GM16216 [36] = test: Induction of mitochondrial biogenesis in human GM16216 cells assessed as ratio of COX1 to SDH-A protein levels at 50 after 48 hrs by ELISA relative to control; type: functional
GM16216 [37] = test: Induction of mitochondrial biogenesis in human GM16216 cells assessed as ratio of COX1 to SDH-A protein levels at 250 after 24 hrs by ELISA relative to control; type: functional
GM16216 [38] = test: Restoration of total aconitase activity in human GM16216 cells at 50 nM after 5 days by colorimetric method relative to control; type: functional
GM16216 [39] = test: Induction of mitochondrial biogenesis in human GM16216 cells assessed as ratio of COX1 to SDH-A protein levels at 250 after 48 hrs by ELISA relative to control; type: functional
GM15850 [40] = test: Restoration of total aconitase activity in human GM15850 cells at 50 nM after 5 days by colorimetric method relative to control; type: functional
GM15850 [41] = test: Induction of mitochondrial biogenesis in human GM15850 cells assessed as ratio of COX1 to SDH-A protein levels at 50 after 48 hrs by ELISA relative to control; type: functional
GM16216 [42] = test: Effect on frataxin expression in human GM16216 cells at 50 nM after 48 hrs by ELISA relative to control; type: functional
GM15850 [43] = test: Increase in ATP production in human GM15850 cells at 0.1 to 0.5 uM after 24 hrs by Vialight reagent based luminescence assay; type: functional, cell-based
GM16216 [44] = test: Induction of mitochondrial biogenesis in human GM16216 cells assessed as ratio of COX1 to SDH-A protein levels at 50 after 24 hrs by ELISA relative to control; type: functional
GM15850 [45] = test: Induction of mitochondrial biogenesis in human GM15850 cells assessed as ratio of COX1 to SDH-A protein levels at 50 after 24 hrs by ELISA relative to control; type: functional
GM16216 [46] = test: Restoration of total aconitase activity in human GM16216 cells at 250 nM after 5 days by colorimetric method relative to control; type: functional
GM16216 [47] = test: Effect on frataxin expression in human GM16216 cells at 50 nM after 24 hrs by ELISA relative to control; type: functional
GM15850 [48] = test: Restoration of total aconitase activity in human GM15850 cells at 250 nM after 5 days by colorimetric method relative to control; type: functional
GM16216 [49] = test: Effect on frataxin expression in human GM16216 cells at 250 nM after 24 hrs by ELISA relative to control; type: functional

CCCCCCCCCCCCCc1cc2nc3ccc(N(C)C)cc3sc-2cc1=O
inactive: Activity (GM15850 [5]) | Activity (GM16216 [13])
87%: Activity (GM16216 [2]) | Activity (GM15850 [14])
active: Activity (GM15850 [1]) | inhibition (GM15850 [3]) | Activity (GM15850 [6]) | Activity (GM16216 [7]) | inhibition (GM16216 [10]) | Activity (GM16216 [11])
13%: Activity (GM15850 [4]) | Activity (GM16216 [12])
Non-Toxic: Activity (GM15850 [8]) | Activity (GM16216 [9])

CCCCCc1cc2nc3ccc(N(C)C)cc3sc-2cc1=O
16%: Activity (GM15850 [4]) | Activity (GM16216 [12])
Toxic: Activity (GM16216 [18]) | Activity (GM15850 [20])
inactive: Activity (GM15850 [15]) | Activity (GM16216 [21])
84%: Activity (GM16216 [2]) | Activity (GM15850 [14])
active: Activity (GM16216 [16]) Dose-dependent effect | inhibition (GM15850 [17]) Dose-dependent effect | inhibition (GM16216 [19]) Dose-dependent effect | Activity (GM15850 [22]) Dose-dependent effect

CCCCCCCCCCCc1cc2nc3ccc(N(C)C)cc3sc-2cc1=O
inactive: Activity (GM16216 [23]) | Activity (GM15850 [24])
active: Activity (GM15850 [1]) | Activity (GM16216 [25]) | Activity (GM16216 [16]) Dose-dependent effect | inhibition (GM15850 [3]) | Activity (GM15850 [6]) | Activity (GM16216 [7]) | inhibition (GM16216 [10]) | Activity (GM16216 [11]) | Activity (GM15850 [22]) Dose-dependent effect | Activity (GM15850 [26])
Non-Toxic: Activity (GM15850 [8]) | Activity (GM16216 [9])
86%: Activity (GM16216 [2]) | Activity (GM15850 [14])
14%: Activity (GM15850 [4]) | Activity (GM16216 [12])

CCCCCCCCCCCCCCCCc1cc2nc3ccc(N(C)C)cc3sc-2cc1=O
132%: Activity (GM15850 [32]) | Activity (GM16216 [36]) | Activity (GM16216 [37]) | Activity (GM15850 [41])
124%: Activity (GM15850 [34]) | Activity (GM16216 [42]) | Activity (GM16216 [46]) | Activity (GM15850 [48])
120%: Activity (GM15850 [31]) | Activity (GM16216 [47])
Non-Toxic: Activity (GM15850 [8]) | Activity (GM16216 [9])
active: Activity (GM15850 [28]) Dose-dependent effect | Activity (GM15850 [1]) | Activity (GM16216 [33]) | Activity (GM16216 [16]) Dose-dependent effect | inhibition (GM15850 [3]) | Activity (GM15850 [6]) | Activity (GM16216 [7]) | inhibition (GM16216 [10]) | Activity (GM16216 [11]) | Activity (GM15850 [43]) | Activity (GM15850 [22]) Dose-dependent effect
121%: Activity (GM16216 [38]) | Activity (GM15850 [40])
127%: Activity (GM15850 [29]) | Activity (GM16216 [44]) | Activity (GM15850 [45]) | Activity (GM16216 [49])
88%: Activity (GM16216 [2]) | Activity (GM15850 [14])
139%: Activity (GM15850 [27]) | Activity (GM16216 [39])
12%: Activity (GM15850 [4]) | Activity (GM16216 [12])
131%: Activity (GM15850 [30]) | Activity (GM16216 [35])
